Test results reported in ChEMBL document CHEMBL5126666, “Cladoxanthones A and B, Xanthone-Derived Metabolites with a Spiro[cyclopentane-1,2'-[3,9a]ethanoxanthene]-2,4',9',11'-tetraone Skeleton from a Cladosporium sp” (J Nat Prod, 2022).

How the values were obtained:
Format in all cases: functional, cell-based
[1] = Antiproliferative activity against mouse MB49 cells assessed as reduction in cell viability after 24 hrs by MTT assay; details: MB49, 24 h
J82 = test: Antiproliferative activity against human J82 cells assessed as reduction in cell viability after 24 hrs by MTT assay; details: J82, 24 h
4T1 = test: Antiproliferative activity against mouse 4T1 cells assessed as reduction in cell viability after 24 hrs by MTT assay; details: 4T1, 24 h
Huh-7 = test: Antiproliferative activity against human Huh-7 cells assessed as reduction in cell viability after 24 hrs by MTT assay; details: Huh-7, 24 h

IC50 (4T1) [µM] | IC50 (Huh-7) [µM] | SMILES | IC50 [1] [µM] | IC50 (J82) [µM]
27.5 | 46.4 | CC1=CC(=O)[C@]2(O)C(=O)c3c(ccc(-c4ccc5c(c4O)C(=O)[C@@]46C[C@@]7(C(=O)CC[C@@H]7C)[C@@](C)(CC4=O)C(=O)[C@]6(C)O5)c3O)O[C@@]2(C)[C@H]1O | 41.7 | 24.7
38.7 | 24.3 | C[C@H]1CCC(=O)[C@@]12C[C@]13C(=O)C[C@@]2(C)C(=O)[C@]1(C)Oc1cccc(O)c1C3=O | 13.9 | 25
